Laboratory results from US20100227853A1, “INHIBITORS OF CYCLIC AMP PHOSPHODIESTERASES” (Trustees of Boston College, priority 2008, published 2010).

Columns and labels:
PDE4A5 = biological target: T1, PDE4A5 (Rattus norvegicus, UniProt P54748); assay: 5FOA growth assay in fission yeast strain expressing PDE4A5; type: cell-based; settings: high throughput 5FOA growth screen
T1 construct: targets used in the assays are full-length proteins (as opposed to simply the catalytic domain); expressed in transfected cells; host or cells: Schizosaccharomyces pombe, PDE gene integrated in place of cgs2
T1 sequence (P54748 1-844): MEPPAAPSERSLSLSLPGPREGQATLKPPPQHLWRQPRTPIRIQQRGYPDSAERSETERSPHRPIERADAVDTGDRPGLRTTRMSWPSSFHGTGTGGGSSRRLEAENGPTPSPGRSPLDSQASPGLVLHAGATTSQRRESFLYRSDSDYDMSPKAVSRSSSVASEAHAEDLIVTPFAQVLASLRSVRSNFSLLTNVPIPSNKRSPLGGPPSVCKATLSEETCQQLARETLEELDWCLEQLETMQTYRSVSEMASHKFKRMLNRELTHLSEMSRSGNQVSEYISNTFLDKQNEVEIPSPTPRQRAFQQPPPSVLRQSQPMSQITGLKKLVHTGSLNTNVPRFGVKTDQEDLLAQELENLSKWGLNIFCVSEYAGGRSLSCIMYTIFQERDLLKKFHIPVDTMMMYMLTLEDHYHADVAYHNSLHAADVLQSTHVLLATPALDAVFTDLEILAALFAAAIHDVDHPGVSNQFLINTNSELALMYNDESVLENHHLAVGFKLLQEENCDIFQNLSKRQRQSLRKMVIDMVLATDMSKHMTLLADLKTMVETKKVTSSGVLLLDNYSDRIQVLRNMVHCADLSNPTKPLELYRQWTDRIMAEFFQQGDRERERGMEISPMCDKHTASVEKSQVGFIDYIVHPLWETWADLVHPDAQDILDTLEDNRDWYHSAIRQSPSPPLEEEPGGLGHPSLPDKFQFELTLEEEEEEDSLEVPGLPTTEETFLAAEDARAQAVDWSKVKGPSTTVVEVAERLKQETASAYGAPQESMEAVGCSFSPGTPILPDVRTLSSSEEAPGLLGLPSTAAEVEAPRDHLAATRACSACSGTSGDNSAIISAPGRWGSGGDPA
Procedure: High throughput drug screens were carried out at the Broad Institute's Chemical Biology Program screening facility (Broad Institute, Cambridge, Mass.). Depending upon the strain, cultures were pregrown to exponential phase in EMM complete medium containing from 0.5 to 2.5 mM cAMP to repress fbp1-ura4 transcription. Cells were collected by centrifugation, resuspended in 5FOA medium, and 25 μl were transferred to 384-well microtiter dishes (untreated, with flat clear bottoms) that had been pre-filled with 25 μl 5FOA medium and pre-pinned with 100 nl of compounds (stock solutions were generally 10 mM) from a subset of the Prestwick Bioactive and the Microsource Spectrum compound libraries. Starting cell concentrations ranged from 0.5×10^5 to 4×10^5 cells/ml depending on the screening strain. […] Other positive control dishes contained 5 mM cAMP in the 5FOA medium. Cultures were grown for 48 hours at 30° C., sealed in an airtight container with moist paper towels to prevent evaporation. Optical densities (OD600) of cultures were measured using a microplate reader. Bioinformatic analysis of the results to determine composite Z scores was performed as previously described^30, 31.
Cells were pregrown in EMM medium [MP Biomedicals (Solon, Ohio), 3% glucose, filter-sterilized to avoid carmelization, which would introduce variability into the optical density of the medium] containing from 0 mM to 2.5 mM cAMP (or either 0.5 mM or 1.0 mM cGMP). This was to repress expression of the fbp1-ura4 reporter prior to exposure of cells to 5FOA medium. Cells were grown at 30° C. to exponential phase (approximately 10^7 cells/ml). Cells were collected by centrifugation and resuspended in 5FOA medium, and 25 μl were transferred to 384-well microtiter dishes (untreated, with flat clear bottoms) that had been pre-filled with 25 μl 5FOA medium and pre-pinned with 100 nl of compounds (stock solutions were generally 10 mM). Starting cell concentrations ranged from 0.5×10^5 to 4×10^5 cells/ml depending on the screening strain. […] Other positive control dishes contained 5 mM cAMP in the 5FOA medium for PDEs that lack appropriate control compounds. Cultures were grown for 48 hours at 30° C., sealed in an airtight container with moist paper towels to prevent evaporation. Optical densities (OD600) of cultures were measured using a microplate reader. Bioinformatic analysis of the results to determine composite Z scores was performed as previously described (1, 3).

PDE7A = PDE7A (Homo sapiens, UniProt Q13946); assay: 5FOA growth assay in fission yeast strain expressing PDE7A; type: cell-based; parameters: targets used in the assays are full-length proteins (as opposed to simply the catalytic domain); expressed in transfected cells; host or cells: Schizosaccharomyces pombe, PDE gene integrated in place of cgs2; settings: high throughput 5FOA growth screen
In short: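 Growth stimulation, reported as composite Z scores, was read as OD600 after 48 h at 30 °C in 5FOA medium. Before this, reporter (fbp1-ura4) yeast were grown at 30 °C in EMM with 0–2.5 mM cAMP or 0.5/1.0 mM cGMP to repress the reporter, then exposed to 100 nl pinned compound (stocks generally 10 mM).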

Chain of PDE7A (Q13946 whole entry, the tested form may be a part): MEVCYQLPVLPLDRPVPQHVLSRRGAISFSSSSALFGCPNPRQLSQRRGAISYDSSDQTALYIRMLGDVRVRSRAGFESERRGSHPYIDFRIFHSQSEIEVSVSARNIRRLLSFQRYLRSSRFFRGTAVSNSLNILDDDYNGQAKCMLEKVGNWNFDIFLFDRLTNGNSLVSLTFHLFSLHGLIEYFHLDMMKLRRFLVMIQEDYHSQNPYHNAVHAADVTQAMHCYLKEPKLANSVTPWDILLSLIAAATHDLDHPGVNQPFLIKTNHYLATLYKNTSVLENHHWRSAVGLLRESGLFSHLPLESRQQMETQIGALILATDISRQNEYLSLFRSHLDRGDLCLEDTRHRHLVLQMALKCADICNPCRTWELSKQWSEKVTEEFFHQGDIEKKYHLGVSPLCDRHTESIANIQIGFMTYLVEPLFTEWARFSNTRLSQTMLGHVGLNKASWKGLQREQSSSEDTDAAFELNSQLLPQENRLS

SMILES	Composite Z score, PDE4A5 (PDE4A5)	Composite Z score, PDE7A (PDE7A)
CC(C)CC(Nc1ncnc2sc3c(c12)CCC3)C(=O)O (stereo not drawn) [Compound 2012H20]	−0.102	−0.757
Cc1nc(NCCc2ccccc2)c2c3c(sc2n1)CCCC3 [Compound 2008G09]	−4.881	0.03
c1csc(CCNc2ncnc3sc4c(c23)CCC4)c1 [Compound 2005M12]	−0.574	−0.398
COc1ccc(CCNc2ncnc3sc4c(c23)CCCC4)cc1 [Compound 2012B19]	20.422	26.421
O=C(O)CCNc1ncnc2sc3c(c12)CCCC3 [Compound 2012O16]	0.289	1.8846
CCCCN(CC)C(=O)c1sc2ncnc(N3CCN(c4ccc(OC)cc4)CC3)c2c1C [Compound 2007H06]	−10.26	1.5462
CNc1nc(=S)[nH]c2sc3c(c12)CCCC3 [2054 E08]	−0.378	−0.995
O=C(/C=C/c1ccccc1)Nc1ncnc2sc3c(c12)CCC3 [Compound 2008K11]	−4.329	0.9074
Cc1cc(C)c(C)c(S(=O)(=O)N2CCN(c3ncnc4sc5c(c34)CCCC5)CC2)c1C [Compound 2012L13]	−0.334	−0.684
O=C(Nc1ncnc2sc3c(c12)CCCCC3)c1ccc(F)cc1 [Compound 2012F09]	26.878	30.877
COc1ccccc1CNC(=O)c1sc2ncnc(N3CCN(c4ccccc4F)CC3)c2c1C [2041 E21]	2.4446	0.5923
CCOC(=O)c1sc2nc(C)nc(N(C)Cc3ccccc3)c2c1C [Compound 2007L04]	13.196	0.2354
Cc1c(C(=O)Nc2ccc(F)cc2F)sc2ncnc(N(C)c3ccccc3)c12 [Compound 58-9]	111.95	123.57
CC1CC(=O)N(c2ncnc3sc4c(c23)CCCC4)N1 (stereo not drawn) [2054 E16]	0.5516	−0.737
CCOC(=O)c1sc2nc(C)nc(N3CCC(C)CC3)c2c1C [Compound 2007D06]	−10.3	−0.759

Now from value to molecule:

Composite Z score, PDE4A5 (PDE4A5)	Composite Z score, PDE7A (PDE7A)	SMILES
0.4891	0.6002	COc1cc(OC)c(NC(=O)c2sc3ncnc(N4CCCCC4C)c3c2C)cc1Cl (stereo not drawn) [Compound 2040J10]
0.7964	−1.371	Cc1c(C(=O)N(C)Cc2ccccc2)sc2ncnc(N3CCN(c4ccccc4)CC3)c12 [Compound 2041G21]
−0.939	−0.933	Cc1c(C(=O)N2CCCCCC2)sc2ncnc(N3CCN(c4ccccc4)CC3)c12 [Compound 2041I21]
2.5342	1.5898	CCOC(=O)c1sc2nc(Cc3ccccc3)nc(NCCC3CCCCC3)c2c1C [Compound 2040F07]
1.3723	0.7021	Cc1nc(N2CCC(C)CC2)c2c(C)c(C(=O)N3CCN(c4ccc(F)cc4)CC3)sc2n1 [Compound 2040N10]
−0.705	−1.037	CCN(CC)c1nc(C)nc2sc(C(=O)N3CCCCCC3)c(C)c12 [Compound 2040N12]
1.0728	0.1836	CCNc1nc(SCC(=O)NC(=O)NCc2ccccc2)nc2sc3c(c12)CCN(C)C3 [Compound 2054N05]
3.411	1.3549	Cc1c(C(=O)NCCC2CCCCC2)sc2ncnc(N3CCCCC3C)c12 (stereo not drawn) [Compound 2040H10]
10.539	−1.377	CCC(C)NC(=O)c1sc2nc(C)nc(N(C)c3ccc(C(C)C)cc3)c2c1C (stereo not drawn) [Compound 2041K04]
1.3091	1.3653	CCOC(=O)c1ccccc1NC(=O)c1sc2nc(C)nc(N(CC)CC)c2c1C [Compound 2040P12]
−4.733	−0.445	c1nc(NCCCN2CCOCC2)c2c3c(sc2n1)CCCC3 [Compound 2051N22]
−0.227	−0.165	CCN(CC)c1ncnc2sc(C(=O)N(C)C3CCCCC3)c(C)c12 [Compound 2040J12]
−0.897	−0.593	CCOC(CNc1nc(C)nc2sc3c(c12)CCCC3)OCC [Compound 2040D04]
−0.22	0.7038	CCNc1nc(SCC(=O)OCC)nc2sc3c(c12)CCC(C)C3 (stereo not drawn) [Compound 2053H16]
2.0846	−0.346	OCCNc1ncnc2sc3c(c12)CCCC3 [Compound 2051H22]
1.1627	0.7201	COc1ccc(NC(=O)c2sc3nc(C)nc(N(C)c4ccc(C(C)C)cc4)c3c2C)c(OC)c1 [Compound 2041I04]
1.7466	−1.481	Cc1nc(N2CCCCC2)c2c(C)c(C(=O)Nc3cccc(C(F)(F)F)c3)sc2n1 [Compound 2040F10]
33.878	0.4852	COc1cccc(NC(=O)c2sc3ncnc(N4CCc5ccccc5C4)c3c2C)c1 [Compound 2041K21]
1.0025	1.181	CCNc1nc(SCc2ccc(Cl)cc2)nc2sc3c(c12)CCN(C)C3 [Compound 2054P05]
0.9752	0.6002	CCN(CC)c1nc(C)nc2sc(C(=O)Nc3cc(Cl)ccc3OC)c(C)c12 [Compound 2040L12]
−0.722	−0.598	Cc1c(C(=O)NCCC(C)C)sc2ncnc(N3CCOCC3)c12 [Compound 2040F13]
